Experimental data taken from ChEMBL document CHEMBL1268940, “Synthesis and anticancer evaluation of thiazolyl-chalcones” (Bioorg Med Chem Lett, 2010).

Key:
Bel-7402 = assay: Cytotoxicity against human Bel7402 cells by MTT assay; format: functional, cell-based
BGC-823 = assay: Cytotoxicity against human BGC823 cells by MTT assay; format: functional, cell-based
NCI-H460 = assay: Cytotoxicity against human NCI-H460 cells by MTT assay; format: functional, cell-based
PC-3 = assay: Cytotoxicity against human PC3 cells by MTT assay; format: functional, cell-based
CCRF S-180 [1] = assay: Anticancer activity against mouse S180 cells xenografted in ICR mouse assessed as tumor weight inhibition at 25 mg/kg, ip relative to control; format: functional; conditions: CCRF S-180, ip, route intraperitoneal
CCRF S-180 [2] = assay: Anticancer activity against mouse S180 cells xenografted in ICR mouse assessed as tumor weight inhibition at 50 mg/kg, ip relative to control; format: functional; conditions: CCRF S-180, ip, route intraperitoneal
CCRF S-180 [3] = assay: Anticancer activity against mouse S180 cells xenografted in ICR mouse assessed as tumor weight inhibition at 100 mg/kg, ip relative to control; conditions: CCRF S-180, ip, read-out: INH

SMILES	IC50 (Bel-7402) [µM]	IC50 (BGC-823) [µM]	IC50 (NCI-H460) [µM]	IC50 (PC-3) [µM]	inhibition in vivo at 25 mg/kg (CCRF S-180 [1]) [%]	inhibition in vivo at 50 mg/kg (CCRF S-180 [2]) [%]	inhibition in vivo at 100 mg/kg (CCRF S-180 [3]) [%]
Cc1ccc(Nc2nc(C)c(C(=O)/C=C/c3ccccc3)s2)cc1	> 25	> 25	> 25	> 25			
COc1cc(/C=C/C(=O)c2sc(Nc3cccc(C)c3)nc2C)cc(OC)c1OC	> 25	17.2	19.8	> 25			
Cc1ccc(Nc2nc(C)c(C(=O)/C=C/c3ccc4c(c3)OCO4)s2)cc1	> 25	> 25	> 25	> 25			
COc1cccc(/C=C/C(=O)c2sc(Nc3ccc(Cl)c(Cl)c3)nc2C)c1	> 25	8.35	20.1	10.1			
Cc1nc(Nc2ccc(Cl)c(Cl)c2)sc1C(=O)/C=C/c1ccccc1	21.5	10.6	22.7	7.99			
COc1cccc(/C=C/C(=O)c2sc(Nc3ccccc3C)nc2C)c1	> 25	> 25	> 25	> 25			
Cc1cccc(Nc2nc(C)c(C(=O)/C=C/c3ccccc3)s2)c1	> 25	13.6	21.8	11.7			
Cc1cccc(Nc2nc(C)c(C(=O)/C=C/c3ccccc3Cl)s2)c1	> 25	24.2	> 25	22.2			
COc1cccc(/C=C/C(=O)c2sc(Nc3cccc(C)c3)nc2C)c1	> 25	> 25	> 25	> 25			
Cc1ccccc1Nc1nc(C)c(C(=O)/C=C/c2ccccc2)s1	> 25	> 25	> 25	> 25			
Cc1nc(Nc2ccc(Cl)cc2)sc1C(=O)/C=C/c1ccccc1	> 25	> 25	> 25	24.6			
COc1cccc(/C=C/C(=O)c2sc(Nc3ccc(C)cc3)nc2C)c1	> 25	> 25	> 25	> 25			
COc1cc(/C=C/C(=O)c2sc(Nc3ccc(F)c(Cl)c3)nc2C)cc(OC)c1OC		9.7	6.31		23	22.6	
Cc1nc(Nc2ccc(Cl)cc2)sc1C(=O)/C=C/c1ccc(Cl)cc1	> 25	> 25	> 25	> 25			
COc1cc(/C=C/C(=O)c2sc(Nc3ccccc3C)nc2C)cc(OC)c1OC	10.3	5.4	6.32	> 25			
COc1ccc(/C=C/C(=O)c2sc(Nc3ccc(Cl)cc3)nc2C)cc1	> 25	> 25	> 25	> 25			
Cc1nc(Nc2cccc(Cl)c2)sc1C(=O)/C=C/c1ccccc1	> 25	> 25	> 25	> 25			
Cc1nc(Nc2ccc(Cl)c(Cl)c2)sc1C(=O)/C=C/c1ccc2c(c1)OCO2	> 25	> 25	> 25	> 25			
Cc1ccc(Nc2nc(C)c(C(=O)/C=C/c3ccc(Cl)cc3)s2)cc1	> 25	> 25	> 25	> 25			

SMILES	IC50 (Bel-7402) [µM]	IC50 (BGC-823) [µM]	IC50 (NCI-H460) [µM]	IC50 (PC-3) [µM]	inhibition in vivo at 25 mg/kg (CCRF S-180 [1]) [%]	inhibition in vivo at 50 mg/kg (CCRF S-180 [2]) [%]	inhibition in vivo at 100 mg/kg (CCRF S-180 [3]) [%]
Cc1ccccc1Nc1nc(C)c(C(=O)/C=C/c2ccccc2Cl)s1	> 25	> 25	> 25	> 25			
Cc1cccc(Nc2nc(C)c(C(=O)/C=C/c3ccc(Cl)cc3)s2)c1	> 25	> 25	> 25	> 25			
Cc1ccc(Nc2nc(C)c(C(=O)/C=C/c3ccccc3Cl)s2)cc1	> 25	> 25	> 25	> 25			
COc1cc(/C=C/C(=O)c2sc(Nc3ccccc3)nc2C)cc(OC)c1OC	> 25	> 25	> 25	> 25			
COc1cccc(/C=C/C(=O)c2sc(Nc3ccccc3)nc2C)c1	> 25	14.3	> 25	> 25			
COc1cc(/C=C/C(=O)c2sc(Nc3ccc(Cl)c(Cl)c3)nc2C)cc(OC)c1OC	> 25	> 25	> 25	19.3		25.1	
Cc1nc(Nc2cccc(Cl)c2)sc1C(=O)/C=C/c1ccc(Cl)cc1	> 25	> 25	> 25	> 25			
COc1cc(/C=C/C(=O)c2sc(Nc3ccc(Cl)cc3)nc2C)cc(OC)c1OC	> 25	> 25	22	> 25			
Cc1nc(Nc2ccccc2)sc1C(=O)/C=C/c1ccc(Cl)cc1	> 25	> 25	> 25	> 25			
Cc1nc(Nc2ccccc2)sc1C(=O)/C=C/c1ccccc1	> 25	19.5	> 25	> 25			
Cc1ccccc1Nc1nc(C)c(C(=O)/C=C/c2ccc(Cl)cc2)s1	> 25	> 25	> 25	> 25			
COc1cccc(/C=C/C(=O)c2sc(Nc3cccc(Cl)c3)nc2C)c1	> 25		> 25	> 25			
COc1cc(/C=C/C(=O)c2sc(Nc3ccc(C)cc3)nc2C)cc(OC)c1OC	> 25	> 25	> 25	> 25			
COc1cc(/C=C/C(=O)c2sc(Nc3cccc(Cl)c3)nc2C)cc(OC)c1OC	14	11.6	> 25	> 25			
Cc1nc(Nc2ccc(Cl)c(Cl)c2)sc1C(=O)/C=C/c1ccc(Cl)cc1	> 25	22.7	> 25	> 25			
O=P1(N(CCCl)CCCl)NCCCO1 (centres undefined) [CYCLOPHOSPHAMIDE ANHYDROUS]							91.7
Cc1nc(Nc2ccccc2)sc1C(=O)/C=C/c1ccccc1Cl	> 25	22.8	> 25	> 25			
COc1cccc(/C=C/C(=O)c2sc(Nc3ccc(Cl)cc3)nc2C)c1	> 25	> 25	> 25	> 25			
COc1ccc(/C=C/C(=O)c2sc(Nc3ccc(Cl)c(Cl)c3)nc2C)cc1	> 25	> 25	> 25	> 25			
